In patent US20200316090A1, “TARGETED THERAPEUTICS” (MADRIGAL PHARMACEUTICALS, INC., priority 2012, published 2020):
Where two headings read alike, the source gives them in different places.

Columns and labels:
[1] = Artificial membrane permeability assay (PAMPA)
Procedure: In order to test the ability SDC-TRAP molecules of the invention to enter cells, an artificial membrane permeability assay (“PAMPA”) was used. […] LC/MS was used in conjunction with PAMPA assays to determine the ability of the SDC-TRAP molecules of the invention to permeate cells.
Pre-coated PAMPA plates were warmed to room temperature for at least 30 minutes prior to adding assay components.
Stock solutions were prepared with the SDC-TRAP molecules to be tested. In order to make a working solution, either 50 μL of 100 μM Stock in DMSO+950 μL of PBS or 50 μL of 200 stock was added to 96 deep well plate, resulting in a 5 μM final concentration or a 10 μM final concentration, respectively. […] 200 μL of PBS was added into the corresponding wells of an acceptor PAMPA plates.
The acceptor plate was lowered onto the donor plate and allowed to incubate for five hours. After five hours, a 50 μL aliquot was removed from each well of each plate and added into a new 96 deep-well plate.
100 μL of methanol containing an internal standard was added to each aliquot and analyzed by LC/MS. The internal standard was 150 ng/ml SDC-TRAP-0002.
In order to calculate the permeability for each SDC-TRAP molecule and the control molecules, the following formula was used:
Permeability (in Unit of Cm/s):
[formula] • C0=initial compound concentration in donor well (mM) • CD (t)=compound concentration in donor well at time t. (mM) • CA (t)=compound concentration in acceptor well at time t. (mM) • VD=donor well volume=0.3 mL • VA=acceptor well volume=0.2 mL • A=filter area=0.3 cm^2 • t=incubation time=18000 s (5 h)
For the data presented in the table below, peak area was used in place of concentration in the formula above.

[2] = Tissue distribution of SDC-TRAP and degradation products in tumor-bearing mice (plasma, tumor, heart); assay type: in vivo, Female SCID Mouse (H1975)
Procedure: A 150 ng/mL solution of SDC-TRAP-0002 in methanol was prepared using an internal spiking solution (500 μg/mL SDC-TRAP-0002 in DMSO). Using the 10 mM stock solutions of the SDC-TRAP molecule and its Hsp90i binding moiety and effector moiety in DMSO, spiking solutions were prepared at 0.025, 0.05, 0.1, 0.5, 1, 5, 10, 50, 100, 250, and 500 μM in DMSO. 5 μL of each spiking solution was added to a 96-deep well plate.
Quality control standards were prepared from 5 μL of 0.1, 1, and 10 μM calibration standard spiking solution added in triplicate into 96-deep well plate and adding 50 μL of matrix (plasma or homogenized tumor).
To prepare test samples, test plasma was diluted as needed using blank plasma. Tumor samples were pulverized in liquid nitrogen, weighed, and homogenized in PBS at 5× volume to sample weight. 50 μL of unknown plasma or homogenized tumor sample was mixed with 5 μL of DMSO. The samples were extracted by precipitating calibration standards, QC standards, and unknown samples with 200 μL of internal standard solution. The samples were mixed by vortex at room temperature for approximately 1.5 minutes, then centrifuge at 2-8° C. 150 μL of supernatant was collected and 25 μL of water added. Samples were mixed and analyzed by LC-MS/MS.
Samples of plasma, heart and tumor were excised from a euthanized mouse, homogenized in PBS at 5 times tissue weight and diluted in 5 μL DMSO/50 μL sample. Prior to analysis, 55 μL samples and calibration standards were precipitated in 200 μL methanol in 96-well plates. Samples were mixed on a vortex mixer for 1.5 minutes at 1500 rpm at room temperature, then centrifuged at 4400 rpm for 10 minutes at 8° C. 150 μL of each supernatant was transferred to a well of a new 96-well plate, and 25 μL of water was added and mixed with the sample. […] For the analysis of samples from female SCID mice, a gradient of solvent A (water/0.1% formic acid) and B (acetonitrile/0.1% formic acid) was used as in Table A below.

[3] = Permeability (10^−6 cm/s), 5 h incubation, peak area used in place of concentration, first table
[4] = Permeability (cm/s), 5 h incubation, peak area used in place of concentration, first table
[5] = tissue distribution of SDC-TRAP-0056, 6 h
[6] = tissue distribution of SDC-TRAP-0056, 12 h
[7] = tissue distribution of SDC-TRAP-0056, 24 h
[8] = female, SCID, mouse, in vivo, read-out: Tumor/Plasma Ratio
[9] = female, SCID, mouse, in vivo, read-out: Plasma Conc.

## Cn1c(=O)c2c(ncn2C)n(C)c1=O [Caffeine]
[1]; 5 h incubation, first table
  Mass Retention (%): 20.8%
[1]; [3]
  Papp at 5 h: 11.7 ×10⁻⁶ cm/s
[1]; Permeability (10^−6 cm/s), same protocol, second table
  Papp at 5 h: 14.3 ×10⁻⁶ cm/s
[1]; [4]
  Papp at 5 h: 11.7 ×10⁻⁶ cm/s
[1]; Permeability (cm/s), same protocol, second table
  Papp at 5 h: 14.3 ×10⁻⁶ cm/s
[1]; same protocol, second table
  Mass Retention (%): −0.11%

## CC(=O)O[C@@]12CO[C@@H]1C[C@H](O)[C@@]1(C)C(=O)[C@H](O)C3=C(C)[C@@H](OC(=O)[C@H](O)[C@@H](NC(=O)OC(C)(C)C)c4ccccc4)C[C@@](O)([C@@H](OC(=O)c4ccccc4)[C@H]21)C3(C)C [Docetaxel, docetaxel, reference compound]
[1]; 5 h incubation, first table
  Mass Retention (%): 17.6%
[1]; [3]
  Papp at 5 h: 0.05 ×10⁻⁶ cm/s
[1]; [4]
  Papp at 5 h: 0.05 ×10⁻⁶ cm/s

## COc1cccc2c1C(=O)c1c(O)c3c(c(O)c1C2=O)C[C@@](O)(C(=O)CO)C[C@@H]3O[C@H]1C[C@H](N)[C@H](O)[C@H](C)O1 [Doxorubicin, doxorubicin, reference compound]
[1]; 5 h incubation, first table
  Mass Retention (%): 21.0%
[1]; [3]
  Papp at 5 h: 0.0033 ×10⁻⁶ cm/s
[1]; [4]
  Papp at 5 h: 0.0033 ×10⁻⁶ cm/s

## CC(C)c1cc(-c2nnc(O)n2-c2ccc3c(ccn3CCN(C)C(=O)CCCC(=O)Nc3cccc4c3CN(C3CCC(=O)NC3=O)C4=O)c2)c(O)cc1O (stereo not drawn) [SDC-TRAP-0018, N1-(2-(5-(3-(2,4-dihydroxy-5-isopropylphenyl)-5-hydroxy-4H-1,2,4-triazol-4-yl)-1H-indol-1-yl)ethyl)-N5-(2-(2,6-dioxopiperidin-3-yl)-1-oxoisoindolin-4-yl)-N1-methylglutaramide]
[1]; 5 h incubation, first table
  Mass Retention (%): 14.7%
[1]; [3]
  Papp at 5 h: 0.0268 ×10⁻⁶ cm/s
[1]; [4]
  Papp at 5 h: 0.0268 ×10⁻⁶ cm/s

## CC(C)c1cc(-c2nnc(O)n2-c2ccc3c(ccn3CCOCCNC(=O)CCn3cc(F)c(=O)[nH]c3=O)c2)c(O)cc1O [SDC-TRAP-0048, N-(2-(2-(5-(3-(2,4-dihydroxy-5-isopropylphenyl)-5-hydroxy-4H-1,2,4-triazol-4-yl)-1H-indol-1-yl)ethoxy)ethyl)-3-(5-fluoro-2,4-dioxo-3,4-dihydropyrimidin-1 (2H)-yl)propanamide]
[1]; 5 h incubation, first table
  Mass Retention (%): 10.8%
[1]; [3]
  Papp at 5 h: 0.0283 ×10⁻⁶ cm/s
[1]; [4]
  Papp at 5 h: 0.0283 ×10⁻⁶ cm/s

## CC(C)c1cc(-c2nnc(O)n2-c2ccc(CN3CCN(C(=O)CCn4cc(F)c(=O)[nH]c4=O)CC3)cc2)c(O)cc1O [SDC-TRAP-0049, 1-(3-(4-(4-(3-(2,4-dihydroxy-5-isopropylphenyl)-5-hydroxy-4H-1,2,4-triazol-4-yl)benzyl)piperazin-1-yl)-3-oxopropyl)-5-fluoropyrimidine-2,4 (1H,3H)-dione]
[1]; 5 h incubation, first table
  Mass Retention (%): 14.1%
[1]; [3]
  Papp at 5 h: 0.0124 ×10⁻⁶ cm/s
[1]; [4]
  Papp at 5 h: 0.0124 ×10⁻⁶ cm/s

## CCc1c2c(nc3ccc(O)cc13)-c1cc3c(c(=O)n1C2)COC(=O)C3(CC)OC(=O)CN1CCN(c2ccc(-n3c(O)nnc3-c3cc(C(C)C)c(O)cc3O)cc2)CC1 (stereo not drawn) [SDC-TRAP-0056, 4,11-diethyl-9-hydroxy-3,14-dioxo-3,4,12,14-tetrahydro-1H-pyrano[3′,4′:6,7]indolizino[1,2-b]quinolin-4-yl 2-(4-(4-(3-(2,4-dihydroxy-5-isopropylphenyl)-5-hydroxy-4H-1,2,4-triazol-4-yl)phenyl)piperazin-1-yl)acetate]
[2]; female, SCID, mouse, in vivo, tissue distribution of SDC-TRAP-0056, 6 h, read-out: Tumor/Plasma Ratio
  Kp: 0.844
[2]; female, SCID, mouse, in vivo, tissue distribution of SDC-TRAP-0056, 12 h, read-out: Tumor/Plasma Ratio
  Kp: 40.3
[2]; female, SCID, mouse, in vivo, tissue distribution of SDC-TRAP-0056, 24 h, read-out: Tumor/Plasma Ratio
  Kp: 40.3
[2]; female, SCID, mouse, in vivo, tissue distribution of SDC-TRAP-0056, […], read-out: Tumor/Plasma Ratio
  Kp: 0.0193
[2]; [5]
  Plasma Conc.: 5880 nM
  Tumor Conc.: 4.97 nmol/g of tissue
[2]; [6]
  Plasma Conc.: 54.2 nM
  Tumor Conc.: 2.19 nmol/g of tissue
[2]; [7]
  Plasma Conc.: 54.2 nM
  Tumor Conc.: 2.19 nmol/g of tissue
[2]; tissue distribution of SDC-TRAP-0056, 48 h
  Tumor Conc.: 0.188 nmol/g of tissue

## CCc1c2c(nc3ccc(O)cc13)-c1cc3c(c(=O)n1C2)COC(=O)[C@@]3(CC)OC(=O)N1CCC(CCn2ccc3cc(-n4c(O)nnc4-c4cc(C(C)C)c(O)cc4O)ccc32)CC1 [SDC-TRAP-0064, (S)-4,11-diethyl-9-hydroxy-3,14-dioxo-3,4,12,14-tetrahydro-1H-pyrano[3′,4′:6,7]indolizino[1,2-b]quinolin-4-yl 4-(2-(5-(3-(2,4-dihydroxy-5-isopropylphenyl)-5-hydroxy-4H-1,2,4-triazol-4-yl)-1H-indol-1-yl)ethyl)piperidine-1-carboxylate]
[1]; same protocol, second table
  Mass Retention (%): 48.4%

## COc1ccc(-c2cnoc2-c2cc(OC)c(OC)c(OC)c2)cc1OC(=O)N1CCN(Cc2ccc(-n3c(O)nnc3-c3cc(C(C)C)c(O)cc3O)cc2)CC1 [SDC-TRAP-0098, 2-Methoxy-5-(5-(3,4,5-trimethoxyphenyl)isoxazol-4-yl)phenyl-4-(4-(3-(2,4-dihydroxy-5-isopropylphenyl)-5-hydroxy-4H-1,2,4-triazol-4-yl)benzyl) piperazine-1-carboxylate]
[2]; tissue distribution of SDC-TRAP-0098, 1 h
  Tumor Conc.: 0.250 nmol/g of tissue
[2]; tissue distribution of SDC-TRAP-0098, 6 h
  Tumor Conc.: 0.0122 nmol/g of tissue
[2]; tissue distribution of SDC-TRAP-0098, 24 h
  Tumor Conc.: BQL
[2]; tissue distribution of SDC-TRAP-0098, 48 h
  Tumor Conc.: BQL

## CC(C)c1cc(-c2nnc(O)n2-c2ccc(CN3CCN(C(=O)Oc4ccc(COC(=O)Nc5cccc6c5CN(C5CCC(=O)NC5=O)C6=O)cc4)CC3)c(F)c2)c(O)cc1O (stereo not drawn) [SDC-TRAP-0171, 4-((((2-(2,6-dioxopiperidin-3-yl)-1-oxoisoindolin-4-yl)carbamoyl)oxy)methyl)phenyl-4-(4-(3-(2,4-dihydroxy-5-isopropylphenyl)-5-hydroxy-4H-1,2,4-triazol-4-yl)-2-fluorobenzyl)piperazine-1-carboxylate]
[2]; [8]
  Kp at 6 h: 407

## CCNC(=O)c1nnc(-c2cc(C(C)C)c(O)cc2O)n1-c1ccc(C(=O)N2CCN(c3cc(C)c(OC(=O)Nc4cccc5c4CN(C4CCC(=O)NC4=O)C5=O)c(C)c3)CC2)cc1 (stereo not drawn) [SDC-TRAP-0178, 4-(4-(4-(3-(2,4-dihydroxy-5-isopropylphenyl)-5-(ethylcarbamoyl)-4H-1,2,4-triazol-4-yl)benzoyl)piperazin-1-yl)-2,6-dimethylphenyl (2-(2,6-dioxopiperidin-3-yl)-1-oxoisoindolin-4-yl)carbamate]
[2]; [9]
  concentration at 1 h: 217000 nM
  concentration at 6 h: 4510 nM
  concentration at 24 h: 28 nM
  concentration at 48 h: 241 nM
[2]; [8]
  Kp at 1 h: 1.59
  Kp at 6 h: 100
  Kp at 24 h: 100
  Kp at […]: 0.0179

## CCNC(=O)c1nnc(-c2cc(C(C)C)c(O)cc2O)n1-c1ccc(CN2CCC(C(=O)N[C@@H](CC(C)C)C(=O)Nc3cccc4c3CN(C3CCC(=O)NC3=O)C4=O)CC2)cc1 (stereo partly drawn) [SDC-TRAP-0193, 1-(4-(3-(2,4-dihydroxy-5-isopropylphenyl)-5-(ethylcarbamoyl)-4H-1,2,4-triazol-4-yl)benzyl)-N-((2S)-1-((2-(2,6-dioxopiperidin-3-yl)-1-oxoisoindolin-4-yl)amino)-4-methyl-1-oxopentan-2-yl)piperidine-4-carboxamide]
[1]; 5 h incubation, first table
  Mass Retention (%): 10.2%
[1]; [3]
  Papp at 5 h: 0.00859 ×10⁻⁶ cm/s
[1]; [4]
  Papp at 5 h: 0.00859 ×10⁻⁶ cm/s

## CCNC(=O)c1nnc(-c2cc(C(C)C)c(O)cc2O)n1-c1ccc(CN2CCC(C(=O)N3CCN(c4cc(C)c(OC(=O)Nc5cccc6c5CN(C5CCC(=O)NC5=O)C6=O)c(C)c4)CC3)CC2)cc1 (stereo not drawn) [SDC-TRAP-0195, 4-(4-(1-(4-(3-(2,4-dihydroxy-5-isopropylphenyl)-5-(ethylcarbamoyl)-4H-1,2,4-triazol-4-yl)benzyl)piperidine-4-carbonyl)piperazin-1-yl)-2,6-dimethylphenyl (2-(2,6-dioxopiperidin-3-yl)-1-oxoisoindolin-4-yl)carbamate]
[1]; 5 h incubation, first table
  Mass Retention (%): 27.1%

## CCNC(=O)c1nnc(-c2cc(C(C)C)c(O)cc2O)n1-c1ccc2c(c1)CN(Cc1cc(OC)c(OC(=O)Nc3cccc4c3CN(C3CCC(=O)NC3=O)C4=O)c(OC)c1)C2 (stereo not drawn) [SDC-TRAP-0196, 4-((5-(3-(2,4-dihydroxy-5-isopropylphenyl)-5-(ethylcarbamoyl)-4H-1,2,4-triazol-4-yl)isoindolin-2-yl)methyl)-2,6-dimethoxyphenyl (2-(2,6-dioxopiperidin-3-yl)-1-oxoisoindolin-4-yl)carbamate]
[1]; 5 h incubation, first table
  Mass Retention (%): 22.3%
